# “Also recorded” adds a separate entry of the source. Like-named read-outs stand apart in the source and are kept apart here.
# Tests used:
# [1] = disulfiram, cited from earlier work
# important enzyme systems [2] = settings: disulfiram; cited from earlier work
# [3] = Critical examinations for possible damages (clinical laboratory and blood pressure determinations); type: in vivo, humans; settings: bilirubin in the blood
# Excerpt: In addition to the treatment with I, critical examinations for possible damages were undertaken. […] However, this observation probably only applies indirectly and exclusively to alcohol-toxic liver damages because toxic alcohol which was no longer inhibited, no longer acted upon the liver.
# trypanosomes = settings: known from P 16 20 043 / GB 1,133,408; cited from earlier work
# [4] = Side effects / tolerability on administration; type: in vivo, humans
# Excerpt: It can even appear upon merely smelling the atmosphere of a barroom. […] However, in comparison with the known severe results of a marked abuse of alcohol, these side effects are negligible.
# [5] = tested on: acetaldehyde content of the blood; test: Acetaldehyde content of the blood after the consumption of alcohol; type: in vivo
# Excerpt: (§1) In contrast, important enzyme systems are inhibited by use of disulfiram.
# important enzyme systems [6] = test: Inhibition of important enzyme systems; type: biochemical; settings: compound I
# Excerpt: as §1
# [7] = tested on: aversion to alcohol in humans; test: Alcohol withdrawal/aversion treatment in patients (case histories); type: in vivo
# Description: In a particularly preferred mode of administration, tablets or dragees containing about 800 mg. of I are used. As an example of its use, after at least 12 hours of alcohol abstention, a half tablet (400 mg.) can be given in the morning before eating, and another half on the next day.
# 22 Men and 5 women were treated with the new agent I. The youngest patient was 22 and the oldest 68. The average age was 44 years. After the first administration (400 mg., twice), as described above, the dosage consisted of a single oral administration of 800 mg. per week. The highest total dosage amounted to 67 g. of I. With this, the patient could be protected against the influence of alcohol for 84 weeks.
# In assessment of success, 5 cases are to be discounted from the total of 27 I treatments. […] Thus, 22 cases remain which can be considered as I treatments. In 12 of these cases, the withdrawal treatment was successful; in three cases questionable; and 7 cases without success. […] After taking 11 g. of I and more (corresponding to an active level period of over 14 weeks), 8 successful cases were counted and two had questionable success. Below 6 g. of I (corresponding to an active level of not more than 8 weeks), there were seven failures; one questionable case and only 2 successful withdrawals.
# [8] = Half-life time of the active material; settings: in vivo
# [9] = after administration of I, humans
# [10] = below 6 g. of I (active level of not more than 8 weeks)
smiles,measurement,setting,value
CCN(CC)C(=S)SSC(=S)N(CC)CC [disulfiram],side effects,[1]; orally administered,several undesirable side effects
same,contraindication,[1]; inter alia diabetes,"contraindicated by, inter alia, diabetes"
same,inhibition of important enzyme systems,important enzyme systems [2],inhibited
"Cc1nc([N+](=O)[O-])cn1-c1ccc([N+](=O)[O-])cc1 [compound I, 1-(4-nitrophenyl)-2-methyl-4-nitroimidazole]",liver function tests,"[3]; γ-GT and γ-globulins, probably indirect, alcohol-toxic liver damages only",clear normalizations
same,harmful side effects in laboratory examinations,"[3]; lymphocytes, GT, GOT, GPT, total protein, β-globulins, γ-globulins, cholesterol, RR systolic",no indications of harmful side effects
same,effectiveness against disease-causing trypanosomes,trypanosomes,effectiveness
same,compatibility,[4]; Example 1: after first 400 mg.,Good compatibility
same,severity of side effects,[4]; [9],generally minor
same,side effects which occasionally appear,[4]; [9],"tachycardia, flush-like skin reddenings, sickly feelings, headache and hangover"
same,acetaldehyde content of the blood,[5],increase
same,inhibition of important enzyme systems,important enzyme systems [6],No such inhibition occurs
same,successful cases,[7]; 11 g. of I and more (active level period of over 14 weeks),8 cases
same,correlation of success with period of the withdrawal treatment,[7]; 22 evaluable cases,clearly correlated
same,outcome of treatment,"[7]; Example 1: champagne cellerman, total dosage 67 g., first treatment from May 1972",the patient behaved normally and worked regularly
same,outcome of renewed treatment,"[7]; Example 1: treatment begun again after relapse in May 1974, up to January 1975",same good success
same,effect of alcohol after discontinuation of treatment,[7]; Example 2: one month after discontinuation (treated November 1973 to February 1974),throbbing headache caused by alcohol
same,outcome of treatment,"[7]; Example 2: storekeeper, total dosage 57 g., since April 1974, relatively regular taking of tablets","normal, regular work"
same,outcome of treatment,"[7]; Example 3: total dosage 37 g., after renewed treatment November 1973 to January 1975",no alcohol
same,outcome of treatment,"[7]; Example 4: immigrant worker, total dosage 25 g., statement of spouse",successful breaking of the habit
same,alcohol consumption since the end of the treatment,"[7]; Example 4: total dosage 25 g., according to statements of the wife",only had an occassional 1-2 glasses of wine
same,outcome of treatment,"[7]; Example 5: employee, total dosage 17 g., after treatment September 1974 to February 1975",alcohol-free
same,revulsion against alcohol,"[7]; after the administration of I, humans",a pronounced revulsion against alcohol is produced; also recorded: causes an aversion to alcohol in humans
same,failures,[7]; [10],seven
same,questionable case,[7]; [10],one
same,successful withdrawals,[7]; [10],2
same,"patient protected against the influence of alcohol, duration","[7]; highest total dosage 67 g., 400 mg. twice, then oral 800 mg. per week",84 weeks
same,withdrawal treatment questionable,[7]; of 22 evaluable cases,three
same,withdrawal treatment successful,[7]; of 22 evaluable cases,12 cases
same,withdrawal treatment without success,[7]; of 22 evaluable cases,7 cases
same,half-life,[8],> 40 h

# Reference: US4182770A, “Alcohol deterrent” (priority 1976, dated 1980)
